Data on two molecules can be found in patent US20240408093A1, “HETEROBIFUNCTIONAL COMPOUNDS AND THEIR USE IN TREATING DISEASE” (HALDA THERAPEUTICS OPCO, INC., priority 2022, published 2024).

For one experiment, the target named is T1, BTK (Homo sapiens, UniProt Q06187).
T1 construct: BTK (amino acids 387-659)
Kind of experiment: Release of effector protein ligand from heterobifunctional compounds, BTK. It is filed as biochemical. The following applies: detected A1-7. As to the method: Exemplary heterobifunctional compounds were evaluated for the ability to release an effector protein ligand in the presence of KRAS G12C, BTK, or EGFR T790M L858R target proteins.
Samples for mass spectrometry for KRAS G12C, BTK, and EGFR T790M L858R were prepared as described above for the intact mass spectrometry target engagement experiment, respectively, except rather than flash-freezing, 20 μL of sample was quenched with 50 μL of 100% acetonitrile. As well, a buffer-only control was used to detect latent release of effector protein ligand analyte. Internal standard (IS) solution consisted of 200 ng/mL propranolol and 50 ng/mL diclofenac in methanol:water 1:1 (v/v). A 4-point calibration curve (calibration standard (CS)) consisting of each analyte was made at final concentrations of 3 nM, 30 nM, 300 nM, and 3000 nM. Unknown samples were diluted such that the unknown analyte concentration was in the linear range of the calibration curve.
Samples for all proteins were prepared and analyzed from the following:
Samples were further analyzed with AB Sciex Triple Quad 5500 system coupled with Shimadzu Prominence HPLC.

Experiment [1] addresses T2, EGFR T790M, L858R (amino acids 669-1011) (Homo sapiens, UniProt P00533, L858R/T790M).
T2 construct: purchased Eurofins Discovery (KdELECT); host or cells: mammalian cells (HEK-293)
Kind of experiment: KdELECT binding assay, EGFR T790M, L858R. The method, then: (§1) Exemplary compounds were tested for ability to bind to EGFR WT (amino acids 669-1011, Accession Number NP_005219.2) or EGFR T790M, L858R (amino acids 669-1011 Accession Number NP_005219.2) expressed from bacteria or mammalian cells, respectively. Compounds were tested using the KdELECT assay at Eurofins Discovery.
(§2) Kinase-tagged T7 phage strains were prepared in an E. coli host derived from the BL21 strain. E. coli were grown to log-phase and infected with T7 phage and incubated with shaking at 32° C. until lysis. The lysates were centrifuged and filtered to remove cell debris. The remaining kinases were produced in HEK-293 cells and subsequently tagged with DNA for qPCR detection. Streptavidin-coated magnetic beads were treated with biotinylated small molecule ligands for 30 minutes at room temperature to generate affinity resins for kinase assays. The liganded beads were blocked with excess biotin and washed with blocking buffer (SeaBlock (Pierce), 1% BSA, 0.05% Tween 20, 1 mM DTT) to remove unbound ligand and to reduce non-specific binding. Binding reactions were assembled by combining kinases, liganded affinity beads, and test compounds in 1x binding buffer (20% SeaBlock, 0.17× PBS, 0.05% Tween 20, 6 mM DTT). Test compounds were prepared as 111× stocks in 100% DMSO. Kd values were determined using an 11-point 3-fold compound dilution series with three DMSO control points. All compounds for Kd measurements are distributed by acoustic transfer (non-contact dispensing) in 100% DMSO. The compounds were then diluted directly into the assays such that the final concentration of DMSO was 0.9%. All reactions performed in polypropylene 384-well plate. Each was a final volume of 0.02 mL. The assay plates were incubated at room temperature with shaking for 1 hour and the affinity beads were washed with wash buffer (1× PBS, 0.05% Tween 20). The beads were then re-suspended in elution buffer (1× PBS, 0.05% Tween 20, 0.5 μM nonbiotinylated affinity ligand) and incubated at room temperature with shaking for 30 minutes. The kinase concentration in the eluates was measured by qPCR.

Experiment [2] relates to HEK293 cells (ATCC CRL-1573). Kind of experiment: Cellular growth inhibition assay, HEK293 cells (Example 16). It is filed as cell-based. The following applies: Homo sapiens, 72 hours, CellTiter-Glo 2.0. As to the method:
(§3) Exemplary compounds were tested for ability to inhibit the proliferation of HEK293 cells (ATCC CRL-1573) and HeLa cells (ATCC CCL-2).
(§4) HEK293 and HeLa cells were cultured in DMEM (Gibco 11995), supplemented with 10% Heat-inactivated FBS (Gibco A38400-01) and 1% Penicillin/Streptomycin (Gibco 15140-122) at 37° C. with 5% CO2 in a humidified tissue culture incubator. Cells were seeded at 500 cells/well in 384-well, Poly-D-lysine-treated blackplates (Perkin Elmer 6007710) in 25 μL media lacking selection for 18-24 hours. Plates were spun at 300 g for 30 seconds and stored in the incubator overnight. After 24 hours, a 25 μL aliquot of compound-containing medium was added in each well, at a final top concentration of 10 μM test compound, with 3-fold dilutions, using DMSO alone as a negative control. Plates were then spun at 300×g for 3 minutes again and cultured at 37° C. with 5% CO2. After 72 hours, cell viability was quantified with CellTiter-Glo 2.0 (Promega). After equilibrating cell plates at room temperature for 30 minutes, 25 μL CellTiter-Glo 2.0 reagent was dispensed into each well. Plates were mixed on a shaker for 2 minutes at 500 rpm, followed by a 10-minute incubation at room temperature. Luminescence readings were measured with an EnVision Plate Reader (Perkin Elmer). Data was normalized to DMSO treated cell wells. A four-parameter non-linear regression curve fit was applied to dose-response data in Prism to determine the half maximal growth inhibitory concentration (GI50) of each compound.

Another experiment concerns HeLa cells (ATCC CCL-2). Kind of experiment: Cellular growth inhibition assay, HeLa cells (Example 16). It is filed as cell-based. The following applies: Homo sapiens, 72 hours, CellTiter-Glo 2.0. As to the method: as §3, §4
The subject of a further experiment is CCNK. Nature of the experiment: Payload release assay (DC50 readout), CCNK degradation in the presence of recombinant target protein. It is filed as cell-based. Conditions: II-series and V-4 (CCNK readout inferred). The method, then: Exemplary compounds were tested for ability to cause degradation of CCNK or GSPT1 in the presence of recombinant target protein.
HEK293 LgBiT/GSPT1 HiBiT CRISPR Knock-in cells (Promega) were cultured in DMEM (Gibco 11995), supplemented with 10% Heat-inactivated FBS (Gibco A38400-01) and 1% Penicillin/Streptomycin (Gibco 15140-122) and 200 Vg/ml Hygromycin B (Gibco 10-687-010) at 37° C. with 5% CO2 in a humidified tissue culture incubator. HEK293 LgBiT/CCNK HiBiT cells (in-house, described above) were cultured in DMEM (Gibco 11995), supplemented with 10% Heat-inactivated FBS (Gibco A38400-01) and 1% Penicillin/Streptomycin (Gibco 15140-122) 200 Vg/ml Hygromycin B (Gibco 10-687-010), and 1 Vg/ml Puromycin Dihydrochloride (Thermo A1113803) at 37° C. with 5% CO2 in a humidified tissue culture incubator. Cells were seeded (1000 cells/well for HEK293 LgBiT/GSPT1 HiBiT cells or 3000 cells/well for HEK293 LgBiT/CCNK HiBiT cells) 384-well, tissue culture-treated white plates (Perkin Elmer 6007680) in 10 μL media lacking selection for 18-24 hours. Plates were spun at 300 g for 30 seconds and stored in the incubator overnight. After 24 hours, a 5 μL aliquot of recombinant target protein (final concentration of either 5 μM KRAS amino acids 1-169, C51S, C80L, C118S, G12C or 3 μM EGFR amino acids 696-1022 or 3 μM EGFR amino acids 696-1022, T790M, L858R) was added to wells, followed immediately by a 5 μL aliquot of 4× compound-containing medium supplemented with Endurazine Substrate (Promega N2570) was added in each well, at a final top concentration of 10 μM test compound and 0.5× Endurazine, with 4-fold dilutions, using DMSO alone as a negative control. Plates were then spun at 300×g for 3 minutes again and cultured at 37° C. with 5% CO2. After 6 hours the plate was read on Envision MultiMode Plate Reader 2105 (Perkin Elmer) to measure luminescence signal. Data was normalized to DMSO treated cell wells. A four-parameter non-linear regression curve fit was applied to dose-response data in Prism to determine the half maximal growth inhibitory concentration (GI50) of each compound.

Experiment [3] concerns the target T3, EGFR WT (amino acids 669-1011) (Homo sapiens, UniProt P00533).
T3 construct: purchased Eurofins Discovery (KdELECT); host or cells: bacteria (E. coli BL21-derived, T7 phage)
Nature of the experiment: KdELECT binding assay, EGFR WT. The method, then: as §1, §2

Where two headings read alike, the source gives them in different places. Some results are limits rather than exact numbers.

T1 sequence (Q06187 387-659): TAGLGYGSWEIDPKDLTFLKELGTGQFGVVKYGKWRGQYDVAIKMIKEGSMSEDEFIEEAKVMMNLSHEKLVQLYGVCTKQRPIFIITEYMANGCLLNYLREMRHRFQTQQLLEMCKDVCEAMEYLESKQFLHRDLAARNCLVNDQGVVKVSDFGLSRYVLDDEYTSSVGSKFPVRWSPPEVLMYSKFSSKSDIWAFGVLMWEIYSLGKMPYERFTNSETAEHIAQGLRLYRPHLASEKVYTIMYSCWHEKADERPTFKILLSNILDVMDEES
T3 sequence (P00533 669-1011): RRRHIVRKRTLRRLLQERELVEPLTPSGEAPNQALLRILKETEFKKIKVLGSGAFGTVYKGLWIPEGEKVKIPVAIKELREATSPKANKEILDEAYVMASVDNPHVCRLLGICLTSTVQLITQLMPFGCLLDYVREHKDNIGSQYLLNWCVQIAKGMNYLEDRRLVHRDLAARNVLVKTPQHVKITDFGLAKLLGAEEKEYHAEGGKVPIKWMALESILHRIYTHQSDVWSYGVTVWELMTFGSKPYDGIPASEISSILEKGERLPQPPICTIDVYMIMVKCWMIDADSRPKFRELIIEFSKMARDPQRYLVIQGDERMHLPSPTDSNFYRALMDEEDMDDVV
T2 sequence (P00533 669-1011 T790M/L858R): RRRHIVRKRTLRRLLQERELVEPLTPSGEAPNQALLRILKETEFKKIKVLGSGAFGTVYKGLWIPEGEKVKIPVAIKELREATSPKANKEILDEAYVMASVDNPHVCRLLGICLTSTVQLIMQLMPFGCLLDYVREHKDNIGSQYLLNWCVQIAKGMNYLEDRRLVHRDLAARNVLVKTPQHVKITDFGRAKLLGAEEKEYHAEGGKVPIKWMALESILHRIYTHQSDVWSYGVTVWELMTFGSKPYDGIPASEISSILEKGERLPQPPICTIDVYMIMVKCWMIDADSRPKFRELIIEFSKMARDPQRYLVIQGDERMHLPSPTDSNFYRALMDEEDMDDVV

For the molecule `C=C(COc1ccc2nc3c(c(CC)c2c1)Cn1c-3cc2c(c1=O)COC(=O)[C@]2(O)CC)C(=O)N1CCC[C@@H](n2nc(-c3ccc(Oc4ccccc4)cc3)c3c(N)ncnc32)C1` [Compound A1-6], the “Concentration of Effector Protein Ligand” value amounted to 790 nM on BTK (Matrix Buffer + Protein (BTK), Time 0 h); 797 nM at BTK (Matrix Buffer + Protein (BTK), Time 1 h); 641 nM at BTK (Matrix Buffer + Protein (BTK), Time 4 h); 770 nM on BTK (Matrix Buffer + Protein (BTK), Time 22 h); 104 nM on BTK (Matrix Buffer, Time 0 h); 92.6 nM on BTK (Matrix Buffer, Time 1 h). Moreover, the “Concentration of Effector Protein Ligand” value came to 66.4 nM at BTK (Matrix Buffer, Time 4 h) and 86.4 nM on BTK (Matrix Buffer, Time 22 h).

With `C=C(Cn1c(CNc2nc(N3CCN(C)CC3)nc3c(Br)cnn23)nc2c(F)c(F)ccc21)C(=O)N[C@@H]1CN(c2nc(Nc3cn(C)nc3OC)c3ncn(C)c3n2)C[C@H]1F` [II-182], the equilibrium dissociation constant (Kd) in experiment [1] and in experiment [3] was over 2.5 µM throughout. The GI50 (in experiment [2]; in the experiment on HeLa cells (ATCC CCL-2)) was 1.5 to 10 µM each time. Moreover, the DC50 in the experiment on CCNK (0 μM recombinant EGFR T790M L858R, read-out: DC50 at 0 μM EGFR T790M L858R) lay within 5 to 10 µM; in the experiment on CCNK (0 μM recombinant EGFR WT, read-out: DC50 at 0 μM EGFR WT), 5 to 10 µM.
